Bridge positions count the residues as written; N and C are the ends. Peptide text beside a SMILES is read from it.

We go through two molecules from US6911524B1 (priority 1999, dated 2005).

Common to all, as to format: cell-based
The test system of assay [1] is Perkinsus marinus. The assay can be described thus: Antiprotozoan activity, parasite viability. The settings on record: Perkinsus marinus in seawater, 1 hour at room temperature, viability by acridine orange / ethidium bromide staining. The method, then:
The oyster-parasite protozoan Perkinsus marinus is cultured in DMEM medium (GIBCO), according to the protocol described by GAUTHIER and VASTA [J. Invertebr. Pathol., 66, 156-168, (1995)].
10 μM of purified peptide are added to 4×10^4 P. marinus, in seawater (final volume 20 μl) . The mixture is incubated for 1 hour at room temperature. The viability of the parasites is estimated by staining with acridine orange and with ethidium bromide, as described by MORVAN et al. [J. Invertebr. Pathol., 69, 177-82 (1997)]. The maximum viability is evaluated, as a positive control, in samples to which the peptide has not been added.

Assay [2] deals with Fusarium oxysporum. Description: Antifungal activity, growth inhibition in liquid phase (MIC). The conditions noted are these: summary of table 1. The method, then:
The antifungal activity was determined by calculating the MIC (minimum inhibitory concentration) in a test of inhibition of Fusarium oxysporum growth in liquid phase, according to the protocol described by FELHBAUM et al. [J. Biol. Chem., 269: 33159-63, (1994)].
A series of successive doubling dilutions of the peptides is prepared as indicated above for determining the antibacterial activity.
80 μl of spores suspended (final concentration 10^4 spores/ml) in Potato Dextrose Broth medium (DIFCO) are added to 10 μl of peptide solution in sterile 96-well polypropylene microtitration plates. The final volume is adjusted to 100 μl by adding water. The growth inhibition is determined after incubation for 24 hours at 25° C. in the dark, by observation under a microscope and measurement of the increase in the OD600. The value of the MIC corresponds to a range (a-b) of peptide concentrations, in which (a) represents the highest concentration at which growth is observed, and (b) represents the lowest concentration which induces 100% growth inhibition.

Assay [3] relates to Escherichia coli D31. The assay can be described thus: Antibacterial assay, MBC determination. The settings on record: summary of table 1. The method, then:
(§1) The minimum […] concentration (MBC) of the peptides was determined according to the protocol described by HANCOCK et al.
(§2) A series of successive doubling dilutions of the peptides, in an aqueous solution containing 0.01% of acetic acid and 0.2% of bovine serum albumin (BSA), is prepared.
(§3) 10 μl aliquots of each dilution are incubated in sterile 96-well polypropylene microtitration plates, in the presence of 100 μl of bacterial suspension at a starting optical density of A600=0.001, in MUELLER HINTON BROTH liquid medium. The incubation is carried out for 18 h at 37° C. with stirring, except in the case of the marine bacteria, for which the incubation is carried out 25° C. The MBC is determined by plating out, onto solid MUELLER HINTON AGAR medium, the content of the wells corresponding to the first 3 dilutions for which no bacterial growth is observed, and incubating at 37° C. for 18 hours. The lowest concentration of peptide which prevents any residual formation of colonies corresponds to the MBC.

Assay [4] deals with Micrococcus luteus. Description: Antibacterial assay, MBC determination. The settings on record: summary of table 1. The method, then:
as §1, §2, §3

As for `CSCC[C@@H]1NC(=O)[C@H](CCCCN)NC(=O)CNC(=O)[C@@H]2CCCN2C(=O)[C@H](Cc2c[nH]cn2)NC(=O)[C@H](CC(C)C)NC(=O)[C@H](C(C)C)NC(=O)[C@H](CCCNC(=N)N)NC(=O)[C@@H]2CSSC[C@H](NC(=O)[C@H](C)NC(=O)[C@H](Cc3c[nH]cn3)NC(=O)[C@H](CO)NC(=O)[C@@H](N)Cc3c[nH]cn3)C(=O)N[C@@H]([C@@H](C)O)C(=O)N[C@@H](CO)C(=O)N[C@@H](Cc3ccc(O)cc3)C(=O)N[C@@H](Cc3c[nH]c4ccccc34)C(=O)N[C@H]3CSSC[C@H](NC1=O)C(=O)N[C@@H](C)C(=O)N[C@H]1CSSC[C@H](NC(=O)[C@H](Cc4ccccc4)NC(=O)[C@H](CCCCN)NC(=O)CNC3=O)C(=O)NCC(=O)N[C@@H]([C@@H](C)O)C(=O)N[C@@H](C)C(=O)N[C@@H](CO)C(=O)N[C@@H](CSSC[C@@H](C(=O)N[C@@H](CO)C(=O)N[C@@H](CCCNC(=N)N)C(=O)O)NC(=O)[C@H](Cc3c[nH]cn3)NC(=O)[C@H](C(C)C)NC1=O)C(=O)N[C@@H]([C@@H](C)O)C(=O)N[C@@H](Cc1c[nH]cn1)C(=O)N[C@@H](Cc1ccc(O)cc1)C(=O)N[C@@H](CC(C)C)C(=O)N2` [Myticin a] (H-HSHACTSYWCGKFCGTASCTHYLCRVLHPGKMCACVHCSR-OH; disulfide 5-24, 10-33, 14-35, 19-38; N-terminus and C-terminus assumed), the “Antiprotozoan activity (biological activity expressed in μM)” value in assay [1] is given as >20 μM.
As to `CC(C)C[C@@H]1NC(=O)[C@H](CCCCN)NC(=O)CNC(=O)[C@H](CCCNC(=N)N)NC(=O)[C@H](Cc2c[nH]cn2)NC(=O)[C@H](CC(C)C)NC(=O)[C@H](CC(N)=O)NC(=O)[C@H](CCCNC(=N)N)NC(=O)[C@@H]2CSSC[C@H](NC(=O)[C@@H](NC(=O)[C@H](Cc3c[nH]cn3)NC(=O)[C@@H]3CCCN3C(=O)[C@@H](N)Cc3c[nH]cn3)C(C)C)C(=O)N[C@@H]([C@@H](C)O)C(=O)N[C@@H](CO)C(=O)N[C@@H](Cc3ccc(O)cc3)C(=O)N[C@@H](Cc3ccc(O)cc3)C(=O)N[C@H]3CSSC[C@H](NC1=O)C(=O)N[C@@H](Cc1ccccc1)C(=O)N[C@H]1CSSC[C@H](NC(=O)[C@H](Cc4ccccc4)NC(=O)[C@H](CCCCN)NC(=O)[C@H](CO)NC3=O)C(=O)NCC(=O)N[C@@H]([C@@H](C)O)C(=O)N[C@@H](C)C(=O)NCC(=O)N[C@@H](CSSC[C@@H](C(=O)N[C@@H](CO)C(=O)N[C@@H](CCCNC(=N)N)C(=O)O)NC(=O)[C@H](Cc3c[nH]cn3)NC(=O)[C@H](CC(C)C)NC1=O)C(=O)N[C@@H]([C@@H](C)O)C(=O)N[C@@H](CCCNC(=N)N)C(=O)N[C@@H](Cc1ccc(O)cc1)C(=O)NCC(=O)N2` [Myticin b] (H-HPHVCTSYYCSKFCGTAGCTRYGCRNLHRGKLCFCLHCSR-OH; disulfide 5-24, 10-33, 14-35, 19-38; N-terminus and C-terminus assumed), in assay [2], the “Activity on Fusarium oxysporum compared (in words)” value is “more active than the Myticin a peptide”. Besides, in assay [3], the “Activity on Escherichia coli compared (in words)” value was “more active than the Myticin a peptide”. Moreover, the “Activity on Micrococcus luteus (in words)” value in assay [4] is given as “more active than the Myticin a peptide”. For the same molecule, the “Antiprotozoan activity (biological activity expressed in μM)” value in assay [1] is given as >20 μM.
